Experiments:
rat [1] = conditions: Multigenerational reproductive toxicity study, wistar, Oral, Feed, dose end: 4 generation
rat [2] = conditions: Prenatal developmental toxicity study, sprague dawley, Oral, Gavage/Intubation, dose end: 19 GD
rat [3] = conditions: Prenatal developmental toxicity study, wistar, Oral, Gavage/Intubation, dose end: 15 GD
rabbit [4] = conditions: Prenatal developmental toxicity study, new zealand white, Oral, Gavage/Intubation, dose end: 18 GD
rabbit [5] = conditions: Prenatal developmental toxicity study, new zealand white, Dermal, Topical, dose end: 19 GD
rabbit [6] = conditions: Prenatal developmental toxicity study, other, Oral, Gavage/Intubation, dose end: 18 GD
[7] = group: offspring, developmental / developmental malformation / bone / absent + developmental / developmental malformation / bone / incomplete ossification + …
[8] = group: offspring, systemic / in life observation / body weight / offspring (pup) weight gain
[9] = group: parental, systemic / in life observation / body weight / body weight gain
[10] = group: reproductive, reproductive / reproductive performance / fertility / fertility + reproductive / reproductive performance / pregnancy / pregnancy
[11] = group: reproductive, reproductive / reproductive performance / fertility / fertility + reproductive / reproductive performance / pregnancy / pregnancy + …
[12] = group: developmental, developmental / developmental malformation / bone / bipartite ossification + developmental / developmental malformation / bone / …
[13] = group: maternal, systemic / in life observation / body weight / body weight + systemic / in life observation / clinical signs / abnormal gait + systemic / in…
[14] = group: developmental, developmental / developmental malformation / general / [other]
[15] = group: maternal, systemic / in life observation / body weight / body weight + systemic / in life observation / food consumption / food consumption
[16] = group: developmental, developmental / developmental malformation / bone / [other] + developmental / developmental malformation / bone / curled + developmental / …
[17] = group: maternal, systemic / in life observation / body weight / body weight gain
[18] = group: maternal, systemic / in life observation / body weight / body weight gain + reproductive / reproductive performance / aborted / aborted + reproductive…
[19] = group: developmental, developmental / developmental malformation / innominate artery / [other]
[20] = group: developmental, systemic / in life observation / body weight / fetal weight
[21] = group: maternal, systemic / in life observation / body weight / body weight + systemic / in life observation / body weight / body weight gain + reproductive…
[22] = group: maternal, systemic / in life observation / body weight / body weight + systemic / in life observation / body weight / body weight gain + systemic / in…

`CC(O)CCO` (configuration not stated) [1,3-Butanediol] gave an LOAEL (rat [1]; [7]) greater than 12000 mg/kg/day, an NOAEL (rat [1]; [7]) of no less than 12000 mg/kg/day and an LEL (rat [1]; [8]) of 2500 mg/kg/day. It also gave an NEL (rat [1]; [8]) of less than 2500 mg/kg/day, an LEL (rat [1]; [9]) of 2500 mg/kg/day and an LOAEL (rat [1]; [9]) greater than 12000 mg/kg/day. It also gave an NEL (rat [1]; [9]) of less than 2500 mg/kg/day, an NOAEL (rat [1]; [9]) of no less than 12000 mg/kg/day and an LEL (rat [1]; [10]) of 2500 mg/kg/day. For the same compound, the NEL (rat [1]; [10]) was less than 2500 mg/kg/day, the LOAEL (rat [1]; [11]) was greater than 12000 mg/kg/day and the NOAEL (rat [1]; [11]) was no less than 12000 mg/kg/day.
With `OC(CCl)CCl` [1,3-Dichloro-2-propanol] the LEL (rat [2]; [12]) was 90 mg/kg/day, the LOAEL (rat [2]; [12]) was greater than 90 mg/kg/day and the NEL (rat [2]; [12]) was 30 mg/kg/day. It also gave an NOAEL (rat [2]; [12]) of no less than 90 mg/kg/day, an LOAEL (rat [2]; [13]) greater than 90 mg/kg/day and an NEL (rat [2]; [13]) of 10 mg/kg/day. It also gave an NOAEL (rat [2]; [13]) of no less than 90 mg/kg/day and an LEL (rat [2]; group: maternal, systemic / in life observation / clinical signs / motor activity + systemic / in life observation / food consumption / food consumption + …) of 30 mg/kg/day.
`OCC#CCO` [2-Butyne-1,4-diol] gave an LEL (rat [3]; [14]) of 80 mg/kg/day, an LOAEL (rat [3]; [14]) greater than 80 mg/kg/day and an NEL (rat [3]; [14]) of 40 mg/kg/day. For the same compound, the NOAEL (rat [3]; [14]) was no less than 80 mg/kg/day, the LEL (rat [3]; [15]) was 80 mg/kg/day and the LOAEL (rat [3]; [15]) was greater than 80 mg/kg/day. For the same compound, the NEL (rat [3]; [15]) was 40 mg/kg/day and the NOAEL (rat [3]; [15]) was no less than 80 mg/kg/day.
`Nc1ncn[nH]1` [Amitrole] gave an LEL (rabbit [4]; [16]) of 40 mg/kg/day, an LOAEL (rabbit [4]; [16]) of 40 mg/kg/day and an NEL (rabbit [4]; [16]) of 4 mg/kg/day. The NOAEL (rabbit [4]; [16]) was 4 mg/kg/day, the LEL (rabbit [4]; [17]) was 40 mg/kg/day and the LOAEL (rabbit [4]; [17]) was 40 mg/kg/day. The NEL (rabbit [4]; [18]) was 4 mg/kg/day, the NOAEL (rabbit [4]; [18]) was 4 mg/kg/day and the LEL (rabbit [5]; [19]) was 1000 mg/kg/day. The NEL (rabbit [5]; [19]) was less than 1000 mg/kg/day, the LOAEL (rabbit [5]; [20]) was 2000 mg/kg/day and the NOAEL (rabbit [5]; group: developmental, systemic / in life observation / body weight / fetal weight + developmental / developmental malformation / bone / absent + developmental / …) was 1500 mg/kg/day. The LOAEL (rabbit [5]; group: maternal, systemic / in life observation / body weight / body weight + systemic / in life observation / body weight / body weight gain) was 2000 mg/kg/day, the LEL (rabbit [5]; [21]) was 2000 mg/kg/day and the NEL (rabbit [5]; [21]) was 1500 mg/kg/day. The NOAEL (rabbit [5]; [21]) was 1500 mg/kg/day, the LEL (rabbit [6]; [20]) was 80 mg/kg/day and the LOAEL (rabbit [6]; [20]) was 80 mg/kg/day. For the same compound, the NEL (rabbit [6]; [20]) was 20 mg/kg/day, the NOAEL (rabbit [6]; [20]) was 20 mg/kg/day and the LEL (rabbit [6]; [22]) was 80 mg/kg/day. The LOAEL (rabbit [6]; [22]) was 80 mg/kg/day, the NEL (rabbit [6]; [22]) was 20 mg/kg/day and the NOAEL (rabbit [6]; [22]) was 20 mg/kg/day.
